# Data published in patent US11066392B2, “Inhibitors of indoleamine 2,3-dioxygenase and methods of their use” (BRISTOL-MYERS SQUIBB COMPANY, priority 2017, dated 2021).
# Molecular target: indoleamine 2,3-dioxygenase (IDO) (Homo sapiens, UniProt P14902)
# Test: HeLa cell-based indoleamine 2,3-dioxygenase (IDO) assay (kynurenine production, IFNγ-stimulated)
# Conditions: HeLa cells, IFNγ 25 ng/mL, 48 hour incubation; read-out: IDO Hela IC50
# Description: Assessment of inhibitor activity in HeLa cell-based indoleamine 2,3-dioxygenase (IDO) assay. HeLa (ATCC® CCL-2) cells were obtained from the ATCC® and cultured in Dulbecco's Modified Eagle Medium supplemented with 4.5 g/L glucose, 4.5 […] sodium pyruvate (#10-013-CV, Corning), 2 mM L-alanyl-L-glutamine dipeptide (#35050-061, Gibco), 100U/mL penicillin, 100 μg/mL streptomycin (#SV30010, HyClone) and 10% fetal bovine serum (#SH30071.03 HyClone). Cells were maintained in a humidified incubator at 37° C. in 5% CO2. […] After 24 hours, the media was aspirated and replaced with media containing IFNγ (#285-IF/CF, R&D Systems) at a final concentration of 25 ng/mL. A serial dilution of each test compound was added to the cells in a total volume of 200 μL of culture medium. After a further 48 hour incubation, 170 μL of supernatant was transferred from each well to a fresh 96-well plate. 12.1 μL of 6.1N trichloroacetic acid (#T0699, Sigma-Aldrich) was added to each well and mixed, followed by incubation at 65° C. for 20 minutes to hydrolyze N-formylkynurenine, the product of indoleamine 2,3-dioxygenase, to kynurenine. The reaction mixture was then centrifuged for 10 mins at 500×g to sediment the precipitate. 100 μL of the supernatant was transferred from each well to a fresh 96-well plate. 100 μl of 2% (w/v) p-dimethylaminobenzaldehyde (#15647-7, Sigma-Aldrich) in acetic acid (#A6283, Sigma-Aldrich) was added to each well mixed and incubated at room temperature for 20 mins. Kynurenine concentrations were determined by measuring absorbance at 480 nm and calibrating against an L-kynurenine (#K8625, Sigma-Aldrich) standard curve using a SPECTRAMAX® M2e microplate reader (Molecular Devices). The percentage activity at each inhibitor concentration was determined and IC50 values assessed using nonlinear regression. Activity for compounds described herein is provided in Table 1, wherein potency levels are provided as follows: (Potency: IDO IC50: […])
# indoleamine 2,3-dioxygenase (IDO), sequence (P14902 whole entry): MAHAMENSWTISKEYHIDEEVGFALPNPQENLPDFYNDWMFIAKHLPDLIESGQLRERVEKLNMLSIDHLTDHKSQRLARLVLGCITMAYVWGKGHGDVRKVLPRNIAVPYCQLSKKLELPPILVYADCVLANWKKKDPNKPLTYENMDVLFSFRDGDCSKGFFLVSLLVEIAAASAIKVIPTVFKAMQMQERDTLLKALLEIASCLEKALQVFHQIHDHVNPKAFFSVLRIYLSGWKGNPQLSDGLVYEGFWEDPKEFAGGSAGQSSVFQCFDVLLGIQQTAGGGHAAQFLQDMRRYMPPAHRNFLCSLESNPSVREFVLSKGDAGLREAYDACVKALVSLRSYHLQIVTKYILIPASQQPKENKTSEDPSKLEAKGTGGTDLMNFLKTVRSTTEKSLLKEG
row,IC50,SMILES
1,40 nM,"CCC(NC(=O)c1ccc(OC)nc1)C1CCC(c2ccnc3c(F)cc(F)cc23)CC1 (single isomer, unassigned) [Example 57d]"
2,220 nM,"CCC(NC(=O)c1ccc(OC)nc1)[C@H]1CC[C@@H](c2cc(C)ccn2)CC1 (single isomer, unassigned) [Example 45a, (±)-6-methoxy-N-(1-(4-(4-methylpyridin-2-yl)cyclohexyl)propyl)nicotinamide]"
3,130 nM,"CCC(NC(=O)c1ccc(OC)nc1)C1CCC(c2ccnc3c(F)cc(F)cc23)CC1 (single isomer, unassigned) [Example 57c]"
4,100 nM,"CC[C@@H](NC(=O)c1ccc(OC)nc1)[C@H]1CC[C@@H](c2ccnc3c(F)cccc32)CC1 (single isomer, unassigned) [Example 59a, N-(1-(4-(8-fluoroquinolin-4-yl)cyclohexyl)propyl)-6-methoxynicotinamide]"
5,490 nM,"CCC(NC(=O)c1ccc(OC)nc1)C1CCC(c2ccnc(F)c2C)CC1 (single isomer, unassigned) [Example 27a, N-(1-((1s,4s)-4-(2-Fluoro-3-methylpyridin-4-yl)cyclohexyl)propyl)-6-methoxynicotinamide]"
6,10 nM,"CC[C@@H](NC(=O)c1ccc(OC)nc1)[C@H]1CC[C@@H](c2ccnc3ncccc32)CC1 (single isomer, unassigned) [Example 53a, N-(1-(4-(1,8-naphthyridin-4-yl)cyclohexyl)propyl)-6-methoxynicotinamide]"

# The next lines start with the molecule.
row,SMILES,IC50
1,"CCC(NC(=O)c1cnc(OC)nc1)C1CCC(c2ccnc3c(F)cc(F)cc23)CC1 (single isomer, unassigned) [Example 58a]",310 nM
2,"CCC(NC(=O)c1ccc(OC)nc1)C1CCC(c2cccc(C(F)(F)F)n2)CC1 (single isomer, unassigned) [Example 47a, 6-methoxy-N-(1-(4-(6-(trifluoromethyl)pyridin-2-yl)cyclohexyl)propyl)nicotinamide]",180 nM
3,"CC[C@@H](NC(=O)c1ccc(OC)nc1)[C@H]1CC[C@@H](c2ccnc3ncccc32)CC1 (single isomer, unassigned) [Example 53b, N-(1-(4-(1,8-naphthyridin-4-yl)cyclohexyl)propyl)-6-methoxynicotinamide]",680 nM
4,"CC[C@@H](NC(=O)c1cnc(OC)nc1)[C@H]1CC[C@@H](c2ccnc3c(F)cccc32)CC1 (single isomer, unassigned) [Example 60c, N-(1-(4-(8-fluoroquinolin-4-yl)cyclohexyl)propyl)-2-methoxypyrimidine-5-carboxamide]",10 nM
5,"CCC(NC(=O)c1ccc(OC)nc1)C1CCC(c2cccc(=O)n2C)CC1 (single isomer, unassigned) [Example 32c, 6-Methoxy-N-(1-(4-(1-methyl-6-oxo-1,6-dihydropyridin-2-yl)cyclohexyl)propyl)nicotinamide]",740 nM
6,"COCCOCC(NC(=O)c1ccc(OC)nc1)C1CCC(c2ccnc3ccc(F)cc23)CC1 (single isomer, unassigned) [Example 15b, N-(1-((1s,4s)-4-(6-Fluoroquinolin-4-yl)cyclohexyl)-2-(2-methoxyethoxy)ethyl)-6-methoxynicotinamide]",10 nM
7,"CC[C@@H](NC(=O)c1ccc(OC)nc1)[C@H]1CC[C@@H](c2cnc3ccccc3c2)CC1 (single isomer, unassigned) [Example 20d, 6-Methoxy-N-(1-(4-(quinolin-3-yl)cyclohexyl)propyl)nicotinamide]",60 nM
8,"CCC(NC(=O)c1cnc(OC)nc1)C1CCC(c2ccnc3c(F)cc(F)cc23)CC1 (single isomer, unassigned) [Example 58b]",500 nM
9,"CC[C@H](NC(=O)c1ccc(OC)nc1)[C@H]1CC[C@@H](c2cncc(OC)c2)CC1 (single isomer, unassigned) [Example 50b, 6-methoxy-N-(1-(4-(5-methoxypyridin-3-yl)cyclohexyl)propyl)nicotinamide]",250 nM
10,"COc1ccc(C(=O)N[C@H](CC2(C)COC2)[C@H]2CC[C@@H](c3ccnc4ccc(C(F)(F)F)cc43)CC2)cn1 (single isomer, unassigned) [Example 17b, 6-Methoxy-N-(2-(3-methyloxetan-3-yl)-1-(4-(6-(trifluoromethyl)quinolin-4-yl)cyclohexyl)ethyl)nicotinamide]",350 nM
11,"COc1ccc(C(=O)NC(C)C2(O)CCC(c3ccnc4ccc(F)cc34)CC2)cn1 (single isomer, unassigned) [Example 62a, N-(1-((1r,4r)-4-(6-fluoroquinolin-4-yl)-1-hydroxycyclohexyl)ethyl)-6-methoxynicotinamide]",70 nM
12,"COC[C@H](NC(=O)c1ccc(OC)nc1)[C@H]1CC[C@@H](c2ccnc(OC)c2C(F)F)CC1 (single isomer, unassigned) [Example 51c, N-(1-(4-(3-(difluoromethyl)-2-methoxypyridin-4-yl)cyclohexyl)-2-methoxyethyl)-6-methoxynicotinamide]",220 nM
13,"CC[C@@H](NC(=O)c1ccc(OC)nc1)[C@H]1CC[C@@H](c2ccn(C)c(=O)c2)CC1 (single isomer, unassigned) [Example 31c, 6-Methoxy-N-(1-(4-(1-methyl-2-oxo-1,2-dihydropyridin-4-yl)cyclohexyl)propyl)nicotinamide]",190 nM

# Same assay, conditions: HeLa cells; potency class; read-out: Patent Potency Hela IC50 A < 10 nM, B > 10 nM, C > 100 nM
row,IC50,SMILES
1,< 10 nM,"CCC(NC(=O)c1ccc(OC)nc1)C1CCC(c2ccnc(OC)c2C(F)F)CC1 (single isomer, unassigned) [Example 24a, N-(1-((1s,4s)-4-(3-(Difluoromethyl)-2-methoxypyridin-4-yl)cyclohexyl)propyl)-6-methoxynicotinamide]"
2,> 100 nM,"CCC(NC(=O)c1ccc(OC)nc1)[C@H]1CC[C@H](c2ccnc(F)c2C)CC1 (mixture of isomers) [Example 67, (±)-N-(1-((1r,4r)-4-(2-fluoro-3-methylpyridin-4-yl)cyclohexyl)propyl)-6-methoxynicotinamide]"
3,< 10 nM,"CCC(NC(=O)c1ccc(OC)nc1)C1CCC(c2ccnc(OC)c2C)CC1 (single isomer, unassigned) [Example 28b, 6-Methoxy-N-(1-((1s,4s)-4-(2-methoxy-3-methylpyridin-4-yl)cyclohexyl)propyl)nicotinamide]"
4,< 10 nM,"CC[C@@H](NC(=O)c1ccc(OC)nc1)[C@H]1CC[C@@H](c2ccnc3c(F)cccc32)CC1 (relative stereo) [Example 59b, N-(1-(4-(8-fluoroquinolin-4-yl)cyclohexyl)propyl)-6-methoxynicotinamide]"
5,< 10 nM,"CCC(NC(=O)c1ccc(OC)nc1)C1CCC(c2ccnc(F)c2C)CC1 (single isomer, unassigned) [Example 27b, N-(1-((1s,4s)-4-(2-Fluoro-3-methylpyridin-4-yl)cyclohexyl)propyl)-6-methoxynicotinamide]"
6,> 100 nM,"CCC(NC(=O)c1ccc(OC)nc1)C1CCC(c2ccnc(F)c2C)CC1 (single isomer, unassigned) [Example 68-2, N-(1-((1r,4r)-4-(2-Fluoro-3-methylpyridin-4-yl)cyclohexyl)propyl)-6-methoxynicotinamide]"

# The remaining lines, values behind:
row,SMILES,IC50
1,"COCC(NC(=O)c1ccc(OC)nc1)C1CCC(c2ccnc3ccc(C(F)(F)F)cc23)CC1 (single isomer, unassigned) [Example 12b, 6-Methoxy-N-(2-methoxy-1-((1s,4s)-4-(6-(trifluoromethyl)quinolin-4-yl)cyclohexyl)ethyl)nicotinamide]",< 10 nM
2,"CC[C@@H](NC(=O)c1ccc(OC)nc1)[C@H]1CC[C@@H](c2ccn(C)c(=O)c2)CC1 (single isomer, unassigned) [Example 31a, 6-Methoxy-N-(1-(4-(1-methyl-2-oxo-1,2-dihydropyridin-4-yl)cyclohexyl)propyl)nicotinamide]",> 100 nM
3,"CCC(NC(=O)c1ccc(OC)nc1)C1CCC(c2cccc(OC(F)F)n2)CC1 (single isomer, unassigned) [Example 48b, N-(1-(4-(6-(difluoromethoxy)pyridin-2-yl)cyclohexyl)propyl)-6-methoxynicotinamide]",> 100 nM
4,"CCC(NC(=O)c1ccc(OC)nc1)C1CCC(c2ccnc3cc(C(F)(F)F)ccc23)CC1 (single isomer, unassigned) [Example 19a, 6-Methoxy-N-(1-((1s,4s)-4-(7-(trifluoromethyl)quinolin-4-yl)cyclohexyl)propyl)nicotinamide]",> 100 nM
5,"CC[C@@H](NC(=O)c1cnc(OC)nc1)[C@H]1CC[C@@H](c2ccnc(OC)c2F)CC1 (single isomer, unassigned) [Example 21c, N-(1-(4-(3-Fluoro-2-methoxypyridin-4-yl)cyclohexyl)propyl)-2-methoxypyrimidine-5-carboxamide]",> 100 nM
